Test results as given in US5530126A, “Process for the preparation of substituted 6-(pyrazol-3yl)-1,4-benzoxazin-3-ones” (Monsanto Company, priority 1994, dated 1996).

Legend:
Type in all cases: in vivo
[1] = tested on: Downy Brome; test: Pre-emergence herbicide test; details: Bromus tectorum, read-out: % plant inhibition (Dobr); for inhibition at 1120 g/ha: 1.12 kg/ha; for inhibition at 11210 g/ha: 11.21 kg/ha
Outline: (§1)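 Greenhouse pans: topsoil compacted to within 0.95-1.27 cm of top, seeds laid on surface, active ingredient (organic solvent or water carrier) applied, untreated topsoil cover added. Watered from below; % inhibition at ~11 d.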

[2] = tested on: Annual bluegrass; test: Pre-emergence herbicide test; details: read-out: % plant inhibition (Anbg); for inhibition at 1120 g/ha: 1.12 kg/ha; for inhibition at 11210 g/ha: 11.21 kg/ha
Outline: as §1

[3] = tested on: Barnyardgrass; test: Pre-emergence herbicide test; details: Echinochloa crus-galli, read-out: % plant inhibition (Bygr); for inhibition at 1120 g/ha: 1.12 kg/ha; for inhibition at 11210 g/ha: 11.21 kg/ha
Outline: as §1

[4] = tested on: Indian Mustard; test: Pre-emergence herbicide test; details: Brassica juncea, read-out: % plant inhibition (Inmu); for inhibition at 1120 g/ha: 1.12 kg/ha; for inhibition at 11210 g/ha: 11.21 kg/ha
Outline: as §1

[5] = tested on: Yellow nutsedge; test: Pre-emergence herbicide test; details: Cyperus, read-out: % plant inhibition (Yens); for inhibition at 1120 g/ha: 1.12 kg/ha; for inhibition at 11210 g/ha: 11.21 kg/ha
Outline: as §1

[6] = tested on: Velvetleaf; test: Pre-emergence herbicide test; details: Abutilon theophrasti, read-out: % plant inhibition (Vele); for inhibition at 1120 g/ha: 1.12 kg/ha; for inhibition at 11210 g/ha: 11.21 kg/ha
Outline: as §1

[7] = tested on: Cocklebur; test: Pre-emergence herbicide test; details: Xanthium strumarium, read-out: % plant inhibition (Cobu); for inhibition at 1120 g/ha: 1.12 kg/ha; for inhibition at 11210 g/ha: 11.21 kg/ha
Outline: as §1

[8] = tested on: Seedling johnsongrass; test: Pre-emergence herbicide test; details: Sorghum halepense, read-out: % plant inhibition (Sejg); for inhibition at 1120 g/ha: 1.12 kg/ha; for inhibition at 11210 g/ha: 11.21 kg/ha
Outline: as §1

[9] = tested on: Morningglory; test: Pre-emergence herbicide test; details: Ipomoea, read-out: % plant inhibition (Mogl); for inhibition at 1120 g/ha: 1.12 kg/ha; for inhibition at 11210 g/ha: 11.21 kg/ha
Outline: as §1

[10] = tested on: Wild buckwheat; test: Pre-emergence herbicide test; details: Fallopia convolvulus, read-out: % plant inhibition (Wibw); for inhibition at 1120 g/ha: 1.12 kg/ha; for inhibition at 11210 g/ha: 11.21 kg/ha
Outline: as §1

[11] = tested on: Downy Brome; test: Post-emergence herbicide test; details: Bromus tectorum, read-out: % plant inhibition (Dobr); for inhibition at 1120 g/ha: 1.12 kg/ha; for inhibition at 11210 g/ha: 11.21 kg/ha
Outline: (§2)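 Pot-grown plants two to three weeks old sprayed at 170.3 kPa with test compound in ~0.4% emulsifier, 1870 L/Ha spray volume. Percent inhibition versus control scored about 11 days after spraying, sometimes again at about 25 days.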

[12] = tested on: Annual bluegrass; test: Post-emergence herbicide test; details: read-out: % plant inhibition (Anbg); for inhibition at 1120 g/ha: 1.12 kg/ha; for inhibition at 11210 g/ha: 11.21 kg/ha
Outline: as §2

[13] = tested on: Barnyardgrass; test: Post-emergence herbicide test; details: Echinochloa crus-galli, read-out: % plant inhibition (Bygr); for inhibition at 1120 g/ha: 1.12 kg/ha; for inhibition at 11210 g/ha: 11.21 kg/ha
Outline: as §2

[14] = tested on: Indian Mustard; test: Post-emergence herbicide test; details: Brassica juncea, read-out: % plant inhibition (Inmu); for inhibition at 1120 g/ha: 1.12 kg/ha; for inhibition at 11210 g/ha: 11.21 kg/ha
Outline: as §2

[15] = tested on: Yellow nutsedge; test: Post-emergence herbicide test; details: Cyperus, read-out: % plant inhibition (Yens); for inhibition at 1120 g/ha: 1.12 kg/ha; for inhibition at 11210 g/ha: 11.21 kg/ha
Outline: as §2

[16] = tested on: Velvetleaf; test: Post-emergence herbicide test; details: Abutilon theophrasti, read-out: % plant inhibition (Vele); for inhibition at 1120 g/ha: 1.12 kg/ha; for inhibition at 11210 g/ha: 11.21 kg/ha
Outline: as §2

[17] = tested on: Cocklebur; test: Post-emergence herbicide test; details: Xanthium strumarium, read-out: % plant inhibition (Cobu); for inhibition at 1120 g/ha: 1.12 kg/ha; for inhibition at 11210 g/ha: 11.21 kg/ha
Outline: as §2

[18] = tested on: Seedling johnsongrass; test: Post-emergence herbicide test; details: Sorghum halepense, read-out: % plant inhibition (Sejg); for inhibition at 1120 g/ha: 1.12 kg/ha; for inhibition at 11210 g/ha: 11.21 kg/ha
Outline: as §2

[19] = tested on: Morningglory; test: Post-emergence herbicide test; details: Ipomoea, read-out: % plant inhibition (Mogl); for inhibition at 1120 g/ha: 1.12 kg/ha; for inhibition at 11210 g/ha: 11.21 kg/ha
Outline: as §2

[20] = tested on: Wild buckwheat; test: Post-emergence herbicide test; details: Fallopia convolvulus, read-out: % plant inhibition (Wibw); for inhibition at 1120 g/ha: 1.12 kg/ha; for inhibition at 11210 g/ha: 11.21 kg/ha
Outline: as §2

SMILES | inhibition at 11210 g/ha [1] [%] | inhibition at 11210 g/ha [2] [%] | inhibition at 11210 g/ha [3] [%] | inhibition at 11210 g/ha [4] [%] | inhibition at 11210 g/ha [5] [%] | inhibition at 11210 g/ha [6] [%] | inhibition at 11210 g/ha [7] [%] | inhibition at 11210 g/ha [8] [%] | inhibition at 11210 g/ha [9] [%] | inhibition at 11210 g/ha [10] [%] | inhibition at 11210 g/ha [11] [%] | inhibition at 11210 g/ha [12] [%] | inhibition at 11210 g/ha [13] [%] | inhibition at 11210 g/ha [14] [%] | inhibition at 11210 g/ha [15] [%] | inhibition at 11210 g/ha [16] [%] | inhibition at 11210 g/ha [17] [%] | inhibition at 11210 g/ha [18] [%] | inhibition at 11210 g/ha [19] [%] | inhibition at 11210 g/ha [20] [%] | other results
Cn1nc(-c2cc(OCc3ccc(Cl)s3)c(Cl)cc2F)c(Cl)c1C(F)(F)F [Compound 252] | – | – | – | – | – | – | – | – | – | – | – | – | – | – | – | – | – | – | – | – | inhibition at 1120 g/ha [1]: 60%; inhibition at 1120 g/ha [2]: 30%; inhibition at 1120 g/ha [3]: 20%; inhibition at 1120 g/ha [4]: 10%; inhibition at 1120 g/ha [5]: 0%; inhibition at 1120 g/ha [6]: 20%; inhibition at 1120 g/ha [7]: 30%; inhibition at 1120 g/ha [8]: 60%; inhibition at 1120 g/ha [9]: 40%; inhibition at 1120 g/ha [10]: 10%; inhibition at 1120 g/ha [11]: 100%; inhibition at 1120 g/ha [12]: 90%; inhibition at 1120 g/ha [13]: 90%; inhibition at 1120 g/ha [14]: 100%; inhibition at 1120 g/ha [15]: 20%; inhibition at 1120 g/ha [16]: 100%; inhibition at 1120 g/ha [17]: 100%; inhibition at 1120 g/ha [18]: 100%; inhibition at 1120 g/ha [19]: 100%; inhibition at 1120 g/ha [20]: 100%
Cc1cc(-c2nn(C)c(C(F)(F)F)c2Cl)c(F)cc1Cl [Compound 124] | 100 | 100 | 100 | 100 | 20 | 100 | 100 | 100 | 100 | 100 | 50 | 70 | 90 | 90 | 20 | 100 | 70 | 100 | 100 | 100 | –
Cn1nc(-c2cc(S(=O)(=O)Cl)c(Cl)cc2Cl)c(Cl)c1C(F)(F)F [Compound 89] | 0 | 0 | 0 | 70 | 10 | 90 | 0 | 0 | 20 | 30 | 10 | 10 | 20 | 80 | 0 | 100 | 100 | 70 | 100 | 50 | –
Cc1cc(-c2nn(C)c(C(F)F)c2Cl)c(F)cc1Cl [Compound 126] | – | – | – | – | – | – | – | – | – | – | – | – | – | – | – | – | – | – | – | – | inhibition at 1120 g/ha [1]: 100%; inhibition at 1120 g/ha [2]: 100%; inhibition at 1120 g/ha [3]: 100%; inhibition at 1120 g/ha [4]: 100%; inhibition at 1120 g/ha [5]: 0%; inhibition at 1120 g/ha [6]: 100%; inhibition at 1120 g/ha [7]: 50%; inhibition at 1120 g/ha [8]: 100%; inhibition at 1120 g/ha [9]: 100%; inhibition at 1120 g/ha [10]: 100%; inhibition at 1120 g/ha [11]: 0%; inhibition at 1120 g/ha [12]: 40%; inhibition at 1120 g/ha [13]: 50%; inhibition at 1120 g/ha [14]: 40%; inhibition at 1120 g/ha [15]: 10%; inhibition at 1120 g/ha [16]: 90%; inhibition at 1120 g/ha [17]: 30%; inhibition at 1120 g/ha [18]: 30%; inhibition at 1120 g/ha [19]: 60%; inhibition at 1120 g/ha [20]: 80%
Cn1nc(C(F)(F)F)c(Cl)c1-c1ccc(F)cc1F [Compound 75] | 20 | 0 | 20 | 30 | 20 | 80 | 10 | 50 | 90 | 50 | 0 | 0 | 0 | 0 | 0 | 0 | 0 | 0 | 10 | 60 | –
CCOC(=O)c1cc(-c2nn(C)c(C(F)(F)F)c2Cl)c(F)cc1Cl [Compound 148, 2-Chloro-5-(4-chloro-1-methyl-5-(trifluoromethyl)-1H-pyrazol-3-yl)-4-fluorobenzoic acid, ethyl ester] | – | – | – | – | – | – | – | – | – | – | – | – | – | – | – | – | – | – | – | – | inhibition at 1120 g/ha [1]: 80%; inhibition at 1120 g/ha [2]: 70%; inhibition at 1120 g/ha [3]: 90%; inhibition at 1120 g/ha [4]: 100%; inhibition at 1120 g/ha [5]: 0%; inhibition at 1120 g/ha [6]: 100%; inhibition at 1120 g/ha [7]: 90%; inhibition at 1120 g/ha [8]: 50%; inhibition at 1120 g/ha [9]: 100%; inhibition at 1120 g/ha [10]: 100%; inhibition at 1120 g/ha [11]: 100%; inhibition at 1120 g/ha [12]: 100%; inhibition at 1120 g/ha [13]: 100%; inhibition at 1120 g/ha [14]: 100%; inhibition at 1120 g/ha [15]: 20%; inhibition at 1120 g/ha [16]: 100%; inhibition at 1120 g/ha [17]: 100%; inhibition at 1120 g/ha [18]: 100%; inhibition at 1120 g/ha [19]: 100%; inhibition at 1120 g/ha [20]: 100%
Cn1nc(C(F)(F)F)c(Cl)c1-c1cc(F)ccc1F [Compound 69] | 0 | 0 | 0 | 0 | 0 | 50 | 0 | 0 | 30 | 0 | 0 | 0 | 0 | 0 | 0 | 10 | 0 | 0 | 10 | 0 | –
